Assay results: patent EP1066315B1 (University of Dundee, priority 1998, dated 2008)
Residues, ends and D or L forms follow the SMILES beside them. *: point of attachment. Fmoc = O=C(OCC1c2ccccc2-c2ccccc21)*

Assays:
cathepsin L/B = test: Hydrolysis of cathepsin L/B substrate Z-Phe-Arg-NHMec by B cell lysosomal fractions; format: biochemical, human; settings: Fig 3b
Procedure: (§1) The invention will now be described by reference to the following Examples and Figures wherein • Figure 1: Processing of TTCF by a leupeptin-insensitive cysteine endopeptidase activity. (a) TTCF was digested in vitro in the presence of disrupted lysosomes (1-2 µg) in the presence or absence of iodoacetamide (1 mM), leupeptin, E64 or pepstatin (each at 0.1 mg/ml). Digestions were in 0.1 M NH4 acetate at pH 4.5 or Na2HPO4, pH 6.0 or 7.0. After 4 hours at 37°C, the reactions were separated by Tris-tricine SDS-PAGE and stained with Coomassie Blue. (b) Cleavage sites: TTCF digestion products were separated by SDS PAGE and electrophoretically transferred to nitrocellulose membrane. Individual fragments numbered 1-6 were subjected to 5 cycles of Edman degradation. N-terminal sequence obtained is shown in bold following upstream residues from TTCF (tetanus toxin numbering). […] (c) Each fraction was analysed by SDS-PAGE and Western blotting. […] Release of 7-amino-4-methyl coumarin was measured after 10, 20 or 30 minutes. […] At different times the cells were washed, fixed in 0.05 % glutaraldehyde and antigen presentation measured using proliferation of different autologous TTCF-specific T cell clones. c, AEP pre-processing of TTCF speeds antigen presentation. […] Presentation was measured after 60 minutes of antigen pulsing using EBV B cells. […]

Cathepsin S = test: Hydrolysis of cathepsin S substrate by B cell lysosomal fractions; format: biochemical, human; settings: Fig 3b
Procedure: as §1

C[C@H](NC(=O)OCC1c2ccccc2-c2ccccc21)C(=O)N[C@@H](CCC(=O)O)C(=O)N[C@@H](CC(N)=O)C(=O)N[C@@H](CCCCN)C(N)=O [AENK, Ala-Glu-Asn-Lys-NH] (Fmoc-AENK-NH2)
hydrolysis of the cathepsin L/B substrate, Z-Phe-Arg-NHMec (cathepsin L/B): had no effect
hydrolysis of the Cathepsin S substrate Z-Val-Val-Arg-HNMec (Cathepsin S): had no effect
